Experimental data taken from ChEMBL document CHEMBL1123527 (J Med Chem, 1986).
pIC50, pKi: −log10 of the molar value. In brackets after ≈: the same amount, converted by molar mass.

Key:
Lacticaseibacillus casei [1] = assay: Compound was evaluated for inhibitory effect on growth of Lactobacillus casei ATCC 7469; type: functional, organism-based
Enterococcus faecium [2] = assay: Compound was evaluated for inhibitory effect on growth of Streptococcus faecium ATCC 8043; type: functional, organism-based
Lacticaseibacillus casei [3] = assay: Compound was evaluated for inhibitory effect on growth of Lactobacillus casei MTX resistant; type: functional, organism-based
Thymidylate synthase [4] = target: T1, Thymidylate synthase (Lactobacillus casei, UniProt P00469); assay: (§1) Compound was evaluated for inhibitory effect on the thymidylate synthase (TS) of Lactobacillus casei; type: functional, Lacticaseibacillus casei
T1 sequence (P00469 whole entry): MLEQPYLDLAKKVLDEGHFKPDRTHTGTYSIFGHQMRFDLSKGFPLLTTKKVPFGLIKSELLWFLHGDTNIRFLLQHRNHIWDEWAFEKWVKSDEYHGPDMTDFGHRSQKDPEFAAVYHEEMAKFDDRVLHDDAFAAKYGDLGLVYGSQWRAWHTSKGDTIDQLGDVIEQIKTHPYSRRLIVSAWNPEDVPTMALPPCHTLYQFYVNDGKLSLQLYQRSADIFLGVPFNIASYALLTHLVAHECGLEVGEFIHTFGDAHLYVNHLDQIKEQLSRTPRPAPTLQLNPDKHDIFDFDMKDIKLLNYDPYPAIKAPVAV

Enterococcus faecium [5] = assay: Compound was evaluated for inhibitory effect on growth of Streptococcus faecium MTX resistant; type: functional, organism-based
L1210 [6] = assay: Compound was evaluated for the efflux (K) mediated transport with respect to L1210 cells; type: functional, cell-based; conditions: Mus musculus
L1210 [7] = assay: cells; conditions: Mus musculus
Dihydrofolate reductase = target: T2, Dihydrofolate reductase (Mus musculus, UniProt P00375); assay: Compound was evaluated for inhibitory effect on dihydrofolate reductase (DHFR) from L1210 cells at Inhibitory constant (n=3); type: cell-based
T2 sequence (P00375 whole entry): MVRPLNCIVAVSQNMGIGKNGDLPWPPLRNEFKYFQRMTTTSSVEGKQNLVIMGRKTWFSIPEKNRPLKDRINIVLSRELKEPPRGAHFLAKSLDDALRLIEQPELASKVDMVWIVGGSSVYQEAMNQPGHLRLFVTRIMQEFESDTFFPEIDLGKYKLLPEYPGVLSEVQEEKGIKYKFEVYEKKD

L1210 [8] = assay: Compound was evaluated for the influx (Km) mediated transport with respect to L1210 cells; type: functional, cell-based; conditions: Mus musculus
L1210 [9] = assay: Compound was evaluated for rate of anabolism to polyglutamate accumulation in L1210 cells; type: functional, Mus musculus
P388 [10] = assay: (§2) Compound at a optimum dose level of 0.5 mg/kg was evaluated in vivo against Murine P388/0 […] cells (1 X 10E6 ip implant); type: organism-based; set-up: dose 0.5 mg/kg, route intraperitoneal; conditions: mouse
P388 [11] = assay: as §2; type: functional, Mus musculus; conditions: route intraperitoneal
P388 [12] = assay: Compound at a optimum dose level of 2 mg/kg was evaluated in vivo against Murine P388/MTX resistant cells (1 X 10E6 ip implant); type: functional, Mus musculus; conditions: route intraperitoneal
P388 [13] = assay: Compound at a optimum dose level of 0.5 mg/kg was evaluated in vivo against Murine P388/MTX resistant cells (1 X 10E6 ip implant); type: functional, Mus musculus; conditions: route intraperitoneal
L1210 [14] = assay: Compound was evaluated for the influx (Km) mediated transport with respect to L1210 cells.; type: functional, cell-based; conditions: Mus musculus
Thymidylate synthase [15] = target: T1, Thymidylate synthase; assay: as §1; set-up: species or system Lacticaseibacillus casei
[16] = Lacticaseibacillus casei, read-out: IC50

Row | Compound | IC50 (Enterococcus faecium [2]) [ng/mL] | IC50 (Enterococcus faecium [5]) [ng/mL] | K (L1210 [6]) [min⁻¹] | pIC50 (L1210 [7]) | pKi (Dihydrofolate reductase) | Km (L1210 [8]) [µM] | Rate (L1210 [9]) | T/C (P388 [10]) [%] | Survival time (P388 [11]) [days] | Survival time (P388 [12]) [days] | further results
1 | Nc1nc(O)c2cc(CNc3ccc(C(=O)NC(CCC(=O)O)C(=O)O)cc3)cnc2n1 (stereo not given) | 0.09 (≈ 0.000204 µM) | 49 (≈ 0.111 µM) |  |  |  |  |  |  |  |  | IC50 (Lacticaseibacillus casei [1]): 0.054 ng/mL (≈ 0.000123 µM); IC50 (Lacticaseibacillus casei [3]; [16]): 3500 ng/mL (≈ 7.95 µM); pIC50 (Thymidylate synthase [4]): 5.77
2 | CCN(Cc1cnc2nc(N)nc(N)c2c1C)c1ccc(C(=O)NC(CCC(=O)O)C(=O)O)cc1 (stereo not given) |  |  | 0.29 | 9.59 | 11.58 | 3.3 |  |  |  |  | 
3 | Nc1nc(N)c2nc(CNc3ccc(C(=O)N[C@@H](CCC(=O)O)C(=O)O)cc3)cnc2n1 [AMINOPTERIN] |  |  | 0.31 |  | 11.45 | 1.2 | 165 pM min-1 (g dry weight)-1 |  |  |  | 
4 | Cc1c(CNc2ccc(C(=O)NC(CCC(=O)O)C(=O)O)cc2)cnc2nc(N)nc(O)c12 (stereo not given) | 380 (≈ 0.836 µM) | > 10000 |  |  |  |  |  |  |  |  | IC50 (Lacticaseibacillus casei [1]): 0.57 ng/mL (≈ 0.00125 µM); IC50 (Lacticaseibacillus casei [3]; [16]): > 10000 ng/mL
5 | CN(Cc1cnc2nc(N)nc(N)c2n1)c1ccc(C(=O)N[C@@H](CCC(=O)O)C(=O)O)cc1 [METHOTREXATE] | 0.26 (≈ 0.000572 µM) | 3000 (≈ 6.6 µM) | 0.33 |  |  | 3.3 |  | 182 | 19.7 | 20.3 | IC50 (Lacticaseibacillus casei [3]): > 500000 ng/mL
6 | Cc1c(CN(C)c2ccc(C(=O)NC(CCC(=O)O)C(=O)O)cc2)cnc2nc(N)nc(N)c12 (stereo not given) |  |  | 0.31 | 9.62 | 11.67 | 3.2 | 42.9 pM min-1 (g dry weight)-1 | 182 | 19.7 | 20.8 | 
7 | CCOC(=O)CCC(NC(=O)c1ccc(NCc2cnc3nc(N)nc(N)c3c2)cc1)C(=O)OCC (stereo not given) |  |  |  |  |  |  |  | 151 | 16.2 | 20.8 | 
8 | Cc1c(CNc2ccc(C(=O)NC(CCC(=O)O)C(=O)O)cc2)cnc2nc(N)nc(N)c12 (stereo not given) |  |  | 0.26 | 9.89 | 11.53 | 1.2 | 98.3 pM min-1 (g dry weight)-1 | 151 | 16.4 |  | Survival time (P388 [13]): 20.8 days
9 | CN(Cc1cnc2nc(N)nc(N)c2c1)c1ccc(C(=O)NC(CCC(=O)O)C(=O)O)cc1 (stereo not given) |  |  | 0.28 | 8.55 | 11.28 |  | 48.8 pM min-1 (g dry weight)-1 | 166 | 18 | 20.3 | Km (L1210 [14]): 4 µM
10 | Nc1nc(N)c2cc(CNc3ccc(C(=O)NC(CCC(=O)O)C(=O)O)cc3)cnc2n1 (stereo not given) |  |  | 0.3 | 9.20 | 11.44 | 1.1 | 84.2 pM min-1 (g dry weight)-1 | 146 | 15.8 | 21.8 | 
11 | Cc1c(CN(C)c2ccc(C(=O)NC(CCC(=O)O)C(=O)O)cc2)cnc2nc(N)nc(O)c12 (stereo not given) | 30 (≈ 0.064 µM) | > 10000 |  |  |  |  |  |  |  |  | IC50 (Lacticaseibacillus casei [1]): 4.6 ng/mL (≈ 0.00982 µM); IC50 (Lacticaseibacillus casei [3]; [16]): > 10000 ng/mL; pIC50 (Thymidylate synthase [15]): 8.56
